Laboratory results from US12257214B2, “Compositions and methods comprising deoxy-pentitols” (The Charlotte Mecklenburg Hospital Authority, priority 2021, dated 2025).

What was measured:
HL-60 = experiment: ATPlite cell IC50 screening, HL-60; assay type: cell-based; details: Homo sapiens; HL-60, Adult acute myeloid leukemia; ATPlite luminescence
Experimental: (§1) In brief, the cells were cultures in relevant medium and treated with a range of 9 doses of 2-deoxyribitol, from 10 mM, 5 mM, 2.5 mM, 1.25 mM, 0.62 mM, 0.31 mM, 0.08 mM, and 0.04 mM. Cells were diluted in the corresponding ATCC recommended medium and dispensed in a 384-well plate, depending on the cell line used, at a density of 100-6400 cells per well in 45 μl medium. For each used cell line the optimal cell density was used. The margins of the plate were filled with phosphate-buffered saline. Plated cells were incubated in a humidified atmosphere of 5% CO2 at 37° C. After 24 hours, 5 μl of compound dilution was added and plates were further incubated. At the end of experiment (t=end), 24 μl of ATPlite 1Step™ (PerkinElmer) solution was added to each well, and subsequently shaken for 2 minutes. After 10 minutes of incubation in the dark, the luminescence was recorded on an Envision multimode reader (PerkinElmer). IC50 was determined in comparison with the control samples. The cell lines tested and their corresponding disease model is indicated the left-most and middle columns, respectively. IC50 values are given in μM values in the right-most column. This screening was performed of a list of cancer cells to establish IC50 values for each of the cancer cell lines. This screening provides evidence for the potential of 2DR to treat many cancer types.

MG-63 = experiment: ATPlite cell IC50 screening, MG-63; assay type: cell-based; details: Homo sapiens; MG-63, Osteosarcoma; ATPlite luminescence
Experimental: as §1

RPMI-7951 = experiment: ATPlite cell IC50 screening, RPMI-7951; assay type: cell-based; details: Homo sapiens; RPMI-7951, Melanoma; ATPlite luminescence
Experimental: as §1

PA-1 = experiment: ATPlite cell IC50 screening, PA-1; assay type: cell-based; details: Homo sapiens; PA-1, Ovarian mixed germ cell tumor; ATPlite luminescence
Experimental: as §1

DLD-1 = experiment: ATPlite cell IC50 screening, DLD-1; assay type: cell-based; details: Homo sapiens; DLD-1, Colon adenocarcinoma; ATPlite luminescence
Experimental: as §1

[1] = test system: hepatocarcinoma HEPG2 cells; experiment: HEPG2 cell culture, growth and death (FIG. 6); assay type: cell-based
Experimental: The cells grow into large sheets (Control; top left panel), but remain tightly packed with limited cytoplasm. Cells were treated with 5 mM (top middle panel), 10 mM (top right panel), 20 mM (bottom left panel), or 40 mM (bottom right panel) 2-deoxyribitol (Drug). A dose-dependent decrease in cell density and increase in volume of cytoplasm is observed with the drug treatment.
2-deoxyribitol was also found to be effective at inhibiting the growth of and inducing cell death in the hepatocarcinoma cell HEPG2. […] HEPG2 cells have a clonal growth pattern with tightly-packed cells growing out to fill the surrounding empty space. […] Small numbers of cell death were also detected in the remaining narrow areas where the size of the cells was relatively smaller than those of surrounding cells.

RL = experiment: ATPlite cell IC50 screening, RL; assay type: cell-based; details: Homo sapiens, Diffuse large B-cell lymphoma, ATPlite luminescence
Experimental: as §1

BT-549 = experiment: ATPlite cell IC50 screening, BT-549; assay type: cell-based; details: Homo sapiens; BT-549, Invasive ductal carcinoma; ATPlite luminescence
Experimental: as §1

A-204 = experiment: ATPlite cell IC50 screening, A-204; assay type: cell-based; details: Homo sapiens, A204; A-204, Embryonal rhabdomyosarcoma; ATPlite luminescence
Experimental: as §1

Storage stability = assay type: physicochemical; details: 4 degrees Celsius, highly stable
From the text: It can be delivered by direct application to local areas, given orally or through vasculature system. 2-deoxyribitol can also be delivered before, at the same time, or after the use of other drugs. 2-deoxyribitol can be applied as treatment for cancers before, at the same time, or after any other treatment procedure(s). In addition, the effect of 2-deoxyribitol on three tissue types of cancers indicate that it can be applied for many other epithelial cancers.

MCF7 cells = experiment: Anchorage independent growth, tumor colonies in agar gel (FIG. 3); assay type: cell-based; details: 20 days
From the text: Stars indicate a significant difference as compared to the control (p<0.01, n=3).
(§2) However, this effect was not related to the enhanced expression of glycosylation of α-DG.

C-33 A = experiment: ATPlite cell IC50 screening, C-33 A; assay type: cell-based; details: Homo sapiens, Cervical squamous cell carcinoma, ATPlite luminescence
Experimental: as §1

HT = experiment: ATPlite cell IC50 screening, HT; assay type: cell-based; details: Homo sapiens, Diffuse large B-cell lymphoma, ATPlite luminescence
Experimental: as §1

SR = experiment: ATPlite cell IC50 screening, SR; assay type: cell-based; details: Homo sapiens, Anaplastic large cell lymphoma, ATPlite luminescence
Experimental: as §1

[2] = test system: breast cancer cell line MCF7; experiment: MCF7 cell culture, growth and death (FIG. 2); assay type: cell-based; details: 3 day treatment
Experimental: From left-top-to-bottom: Control, 0.4 mM Drug, 2 mM rib, and 10 mM Drug; From right-top-to-bottom: 0.4 mM rib; 2 mM Drug; 10 mM rib; and 50 mM Drug.
as §2

A-172 = experiment: ATPlite cell IC50 screening, A-172; assay type: cell-based; details: Homo sapiens; A-172, Glioblastoma; ATPlite luminescence
Experimental: as §1

JAR = experiment: ATPlite cell IC50 screening, JAR; assay type: cell-based; details: Gestational choriocarcinoma, ATPlite luminescence
Experimental: as §1

G-361 = experiment: ATPlite cell IC50 screening, G-361; assay type: cell-based; details: Homo sapiens; G-361, Melanoma; ATPlite luminescence
Experimental: as §1

[3] = test system: MDA231 cells (triple negative breast cancer cell); experiment: MDA231 cell growth; assay type: cell-based
Experimental: as §2
Less than 50% of cells and 10% of cells were detected with the treatment of 10 mM and 50 mM 2-deoxyribitol, respectively.

A-549 = experiment: ATPlite cell IC50 screening, A-549; assay type: cell-based; details: Homo sapiens, A549; A-549, Lung adenocarcinoma; ATPlite luminescence
Experimental: as §1

[4] = test system: normal human myoblasts (HSKM cells); experiment: Normal human myoblast culture (FIG. 7); assay type: cell-based; details: HSKM cells, 2, 10, 20 mM, 3 days
Experimental: Three different doses were tested as labeled in the images: 2 mM (top right panel), 10 mM (bottom left panel), and 20 mM (bottom right panel) 2-deoxyribitol. No-drug control is shown in top left panel. Drug effect on growth of the cells is not clearly visible.
In contrast, 2-deoxyribitol produced unnoticeable changes in cell culture of normal human myoblasts or differentiated myotubes (FIG. 7), indicating its low toxicity potential to normal cell populations. In this study, normal human myoblasts (HSKM cells) were treated with 2-deoxyribitol (Drug) for 3 days.

SW48 = experiment: ATPlite cell IC50 screening, SW48; assay type: cell-based; details: Homo sapiens; SW48, Colon adenocarcinoma; ATPlite luminescence
Experimental: as §1

Q: Which IC50 (HL-60) does the source give for OCC[C@H](O)[C@H](O)CO [2-deoxyribitol] here?
A: 7.46 mM

Q: And the IC50 (MG-63)?
A: 9.27 mM

Q: And the IC50 (RPMI-7951)?
A: 6.77 mM

Q: And the IC50 (PA-1)?
A: 3.49 mM

Q: And the IC50 (DLD-1)?
A: 4.53 mM

Q: And the “effect on number of cells and cytoplasm” value ([1]; HEPG2, 5-40 mM)?
A: decreased the number of cells with increasing amount of cytoplasm dose-dependently

Q: What about the “cell size relative to control cells” value ([1]; HEPG2, majority of cells, dose of 20 mM or higher) of the same compound?
A: three or more times larger

Q: And the IC50 (RL)?
A: 3.4 mM

Q: What about the IC50 (BT-549) of the same compound?
A: 4.27 mM

Q: What about the IC50 (A-204) of the same compound?
A: 6.06 mM

Q: What about the stability on storage (Storage stability) of the same compound?
A: at least 6 months

Q: What about the “cell colonies in agar culture” value (MCF7 cells; 10 mM) of the same compound?
A: absence of cell colony

Q: And the “anchorage independent growth (formation of tumor colonies within agar gel)” value (MCF7 cells; 10 mM and 20 mM)?
A: significantly inhibited

Q: And the IC50 (C-33 A)?
A: 7.6 mM

Q: And the IC50 (HT)?
A: 6.89 mM

Q: What about the IC50 (SR) of the same compound?
A: 4.25 mM

Q: And the “effect on cell growth, death and morphology” value ([2]; MCF7, 0.4-50 mM)?
A: dose-dependent inhibition in cell growth and increase in cell death

Q: And the “cells survive compared to the control” value ([2]; MCF7, dose of 10 mM or higher)?
A: about 10%

Q: And the IC50 (A-172)?
A: > 10 mM

Q: And the IC50 (JAR)?
A: 3.6 mM

Q: And the IC50 (G-361)?
A: > 10 mM

Q: What about the “inhibitory effect as seen in MCF7 (growth / anchorage independent growth)” value ([3]; MDA231, concentrations lower than 10 mM) of the same compound?
A: clearly demonstrated

Q: What about the inhibiting cell growth ([3]; MDA231 cells) of the same compound?
A: had an effect on inhibiting cell growth

Q: And the IC50 (A-549)?
A: 9.97 mM

Q: And the “cell density or myofiber formation versus control” value [4]?
A: No difference in cell density or myofiber formation

Q: And the IC50 (SW48)?
A: 4.49 mM
